Measured values from article PMC10056986 (Pharmaceuticals, 2023).
Read-outs that look alike come from different tables or passages of the source.

Experiments:
[1] = molecular target: CB2 (Homo sapiens, UniProt P34972); experiment: cell-based
[2] = molecular target: PKA (Homo sapiens, UniProt P17612); experiment: biochemical
[3] = tested on: A/PR/8/34 (H1N1); set-up: species or system BALB/c mice; conditions: mouse, in vivo
[4] = molecular target: Alpha2a (Homo sapiens, UniProt P08913); experiment: cell-based
[5] = tested on: influenza A virus WSN/33 (H1N1); set-up: species or system BALB/c mice; conditions: mouse, in vivo
[6] = molecular target: 5HT2A (Homo sapiens, UniProt P28223); experiment: cell-based
[7] = tested on: Influenza virus A/Hong Kong/8/68 (H3N2); experiment: microbe, parasite or virus in culture; format: cell-based; conditions: unidentified influenza virus, H3N2, MDCK, read-out: EC50 (mean ± SD)
[8] = molecular target: KDR (Homo sapiens, UniProt P35968); experiment: biochemical
[9] = molecular target: H1 (Homo sapiens, UniProt P35367); experiment: cell-based
[10] = molecular target: EPHA2 (Homo sapiens, UniProt P29317); experiment: biochemical
[11] = molecular target: CHK1 (Homo sapiens, UniProt O14757); experiment: biochemical
[12] = tested on: influenza A virus WSN/33 (H1N1); set-up: species or system BALB/c mice; conditions: mouse, in vivo; remark: listed apart in the source
[13] = molecular target: GSK3 beta (Homo sapiens, UniProt P49841); experiment: biochemical
[14] = molecular target: T1, V1a (Homo sapiens, UniProt P37288); experiment: cell-based
[15] = tested on: Influenza virus A/California/2/2014 (H3N2); experiment: microbe, parasite or virus in culture; format: cell-based; conditions: H3N2, MDCK, read-out: EC50 (mean ± SD)
[16] = molecular target: JAK2 (Homo sapiens, UniProt O60674); experiment: biochemical
[17] = in vitro; conditions: human
[18] = molecular target: CDK2 (Homo sapiens, UniProt P24941); experiment: biochemical
[19] = molecular target: p38 alpha (Homo sapiens, UniProt Q16539); experiment: biochemical
[20] = tested on: AD2; format: cell-based, human
[21] = in vitro; conditions: human; remark: listed apart in the source
[22] = molecular target: CB1 (Homo sapiens, UniProt P21554); experiment: cell-based
[23] = in vivo; conditions: both, SD, rat; for AUC(0-t): AUC0-last
[24] = molecular target: Beta2 (Homo sapiens, UniProt P07550); experiment: cell-based
[25] = molecular target: T2, D1 (Homo sapiens, UniProt P21728); experiment: cell-based
[26] = molecular target: T1, V1a; experiment: cell-based; remark: listed apart in the source
[27] = tested on: H1N1 and H3N2 influenza A virus strains; experiment: microbe, parasite or virus in culture; conditions: MDCK
[28] = tested on: A/Anhui/01/2013 (H7N9); experiment: microbe, parasite or virus in culture; format: cell-based, avian influenza virus; conditions: Influenza A virus, H7N9, MDCK, read-out: IC50 (mean ± SD)
[29] = molecular target: FGFR1 (Homo sapiens, UniProt P11362); experiment: biochemical
[30] = molecular target: T2, D1; experiment: cell-based; remark: listed apart in the source
[31] = tested on: HSV-1 GHSV-UL46; experiment: microbe, parasite or virus in culture; format: cell-based, herpes simplex virus type 1; conditions: Human alphaherpesvirus 1, Vero C1008, read-out: EC50 for Virus
[32] = molecular target: MINK (Homo sapiens, UniProt Q8N4C8); experiment: biochemical
[33] = molecular target: op-mu (Homo sapiens, UniProt P35372); experiment: cell-based
[34] = molecular target: op-kappa (Homo sapiens, UniProt P41145); experiment: cell-based
[35] = tested on: influenza A virus/California/07/2009 (H1N1); set-up: species or system ferrets; conditions: in vivo, po, 25 mg/kg/day
[36] = 10,000 nM, read-out: Inhibition at Maximum Concentration (%)

T2 sequence (P21728 whole entry): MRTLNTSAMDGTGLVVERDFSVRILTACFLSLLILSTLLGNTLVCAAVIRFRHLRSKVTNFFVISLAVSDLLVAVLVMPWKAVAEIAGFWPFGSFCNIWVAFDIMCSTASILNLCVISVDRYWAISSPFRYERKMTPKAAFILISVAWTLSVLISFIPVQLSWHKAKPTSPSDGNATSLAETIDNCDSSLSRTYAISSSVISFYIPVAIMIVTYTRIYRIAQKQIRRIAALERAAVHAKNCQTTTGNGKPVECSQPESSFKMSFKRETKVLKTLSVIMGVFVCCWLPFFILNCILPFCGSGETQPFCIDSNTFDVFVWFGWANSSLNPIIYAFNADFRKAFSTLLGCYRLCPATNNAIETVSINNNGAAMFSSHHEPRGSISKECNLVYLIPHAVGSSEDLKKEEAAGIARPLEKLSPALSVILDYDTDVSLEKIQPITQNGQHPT
T1 sequence (P37288 whole entry): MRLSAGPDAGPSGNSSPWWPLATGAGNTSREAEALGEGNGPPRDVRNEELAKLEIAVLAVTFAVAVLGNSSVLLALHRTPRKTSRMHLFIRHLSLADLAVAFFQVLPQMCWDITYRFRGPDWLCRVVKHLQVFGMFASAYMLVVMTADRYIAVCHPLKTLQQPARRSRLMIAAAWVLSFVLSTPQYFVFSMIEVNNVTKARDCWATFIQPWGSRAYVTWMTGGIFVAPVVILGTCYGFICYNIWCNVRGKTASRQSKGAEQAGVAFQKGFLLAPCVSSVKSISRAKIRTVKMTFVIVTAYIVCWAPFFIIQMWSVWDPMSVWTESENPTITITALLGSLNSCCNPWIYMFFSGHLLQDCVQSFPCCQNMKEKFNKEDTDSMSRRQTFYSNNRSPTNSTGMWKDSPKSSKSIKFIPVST
5HT2A, sequence (P28223 whole entry): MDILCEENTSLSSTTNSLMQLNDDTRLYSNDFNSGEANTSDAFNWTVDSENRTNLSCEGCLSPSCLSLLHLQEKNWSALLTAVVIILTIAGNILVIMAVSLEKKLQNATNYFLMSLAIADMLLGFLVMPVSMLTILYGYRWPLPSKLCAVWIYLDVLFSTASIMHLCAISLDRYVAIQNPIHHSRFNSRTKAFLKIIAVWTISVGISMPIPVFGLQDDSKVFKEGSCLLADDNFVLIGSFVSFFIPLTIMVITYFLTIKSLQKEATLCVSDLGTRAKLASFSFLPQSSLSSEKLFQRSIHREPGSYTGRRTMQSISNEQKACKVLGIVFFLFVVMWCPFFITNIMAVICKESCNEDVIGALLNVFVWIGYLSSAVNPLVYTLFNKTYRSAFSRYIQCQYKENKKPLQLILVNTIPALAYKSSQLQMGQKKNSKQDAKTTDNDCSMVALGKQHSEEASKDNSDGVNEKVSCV
Beta2, sequence (P07550 whole entry): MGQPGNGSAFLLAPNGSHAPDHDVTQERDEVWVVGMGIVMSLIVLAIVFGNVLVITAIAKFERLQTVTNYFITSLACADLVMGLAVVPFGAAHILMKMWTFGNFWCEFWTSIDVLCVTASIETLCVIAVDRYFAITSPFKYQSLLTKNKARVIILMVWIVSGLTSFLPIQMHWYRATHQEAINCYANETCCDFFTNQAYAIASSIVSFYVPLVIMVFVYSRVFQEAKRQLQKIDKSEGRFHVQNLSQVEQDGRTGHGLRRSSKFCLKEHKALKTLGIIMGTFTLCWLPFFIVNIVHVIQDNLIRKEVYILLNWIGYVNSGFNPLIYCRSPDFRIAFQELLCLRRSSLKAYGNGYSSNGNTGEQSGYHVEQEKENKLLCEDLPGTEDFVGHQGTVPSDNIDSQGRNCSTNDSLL
H1, sequence (P35367 whole entry): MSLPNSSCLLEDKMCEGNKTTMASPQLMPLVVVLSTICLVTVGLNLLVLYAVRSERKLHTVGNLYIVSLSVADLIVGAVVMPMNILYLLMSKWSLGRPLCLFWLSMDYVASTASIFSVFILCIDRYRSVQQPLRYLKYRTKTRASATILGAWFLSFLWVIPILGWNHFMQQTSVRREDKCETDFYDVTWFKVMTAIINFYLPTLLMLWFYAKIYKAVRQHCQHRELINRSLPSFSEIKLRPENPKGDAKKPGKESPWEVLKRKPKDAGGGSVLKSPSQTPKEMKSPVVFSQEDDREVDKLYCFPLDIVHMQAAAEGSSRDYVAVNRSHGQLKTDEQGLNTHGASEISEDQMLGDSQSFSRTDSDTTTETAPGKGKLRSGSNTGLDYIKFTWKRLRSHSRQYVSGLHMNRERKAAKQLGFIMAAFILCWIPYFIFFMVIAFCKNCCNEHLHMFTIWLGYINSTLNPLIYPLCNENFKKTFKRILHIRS
CB2, sequence (P34972 whole entry): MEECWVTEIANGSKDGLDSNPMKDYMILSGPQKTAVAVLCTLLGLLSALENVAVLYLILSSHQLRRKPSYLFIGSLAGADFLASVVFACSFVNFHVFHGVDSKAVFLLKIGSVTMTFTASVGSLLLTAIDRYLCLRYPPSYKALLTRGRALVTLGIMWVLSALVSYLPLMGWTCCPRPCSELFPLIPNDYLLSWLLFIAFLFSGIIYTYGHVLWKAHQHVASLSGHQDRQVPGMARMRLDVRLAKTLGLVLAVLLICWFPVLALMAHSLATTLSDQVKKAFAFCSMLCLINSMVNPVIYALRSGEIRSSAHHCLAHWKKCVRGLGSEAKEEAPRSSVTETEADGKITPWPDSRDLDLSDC
op-kappa, sequence (P41145 whole entry): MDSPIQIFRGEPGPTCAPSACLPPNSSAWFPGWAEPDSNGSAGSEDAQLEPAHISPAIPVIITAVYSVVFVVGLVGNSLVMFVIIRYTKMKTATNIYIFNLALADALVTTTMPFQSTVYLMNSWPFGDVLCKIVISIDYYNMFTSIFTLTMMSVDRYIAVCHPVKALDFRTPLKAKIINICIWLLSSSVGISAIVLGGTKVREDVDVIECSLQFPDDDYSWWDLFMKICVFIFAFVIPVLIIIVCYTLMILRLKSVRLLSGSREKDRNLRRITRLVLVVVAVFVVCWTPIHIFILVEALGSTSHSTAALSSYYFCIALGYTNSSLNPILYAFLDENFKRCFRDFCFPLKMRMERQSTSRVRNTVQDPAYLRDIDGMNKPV
Alpha2a, sequence (P08913 whole entry): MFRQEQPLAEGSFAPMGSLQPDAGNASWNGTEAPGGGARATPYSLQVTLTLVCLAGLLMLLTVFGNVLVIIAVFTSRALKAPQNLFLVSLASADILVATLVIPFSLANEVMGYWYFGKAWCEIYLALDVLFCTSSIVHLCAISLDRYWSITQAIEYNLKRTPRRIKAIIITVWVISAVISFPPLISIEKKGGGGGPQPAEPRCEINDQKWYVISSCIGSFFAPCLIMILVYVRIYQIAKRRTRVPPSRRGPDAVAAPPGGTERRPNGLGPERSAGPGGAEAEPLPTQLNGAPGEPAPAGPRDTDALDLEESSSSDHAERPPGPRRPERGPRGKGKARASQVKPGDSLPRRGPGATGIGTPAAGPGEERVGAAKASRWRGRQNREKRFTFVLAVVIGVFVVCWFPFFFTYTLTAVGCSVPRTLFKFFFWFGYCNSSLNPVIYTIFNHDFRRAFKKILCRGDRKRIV
op-mu, sequence (P35372 whole entry): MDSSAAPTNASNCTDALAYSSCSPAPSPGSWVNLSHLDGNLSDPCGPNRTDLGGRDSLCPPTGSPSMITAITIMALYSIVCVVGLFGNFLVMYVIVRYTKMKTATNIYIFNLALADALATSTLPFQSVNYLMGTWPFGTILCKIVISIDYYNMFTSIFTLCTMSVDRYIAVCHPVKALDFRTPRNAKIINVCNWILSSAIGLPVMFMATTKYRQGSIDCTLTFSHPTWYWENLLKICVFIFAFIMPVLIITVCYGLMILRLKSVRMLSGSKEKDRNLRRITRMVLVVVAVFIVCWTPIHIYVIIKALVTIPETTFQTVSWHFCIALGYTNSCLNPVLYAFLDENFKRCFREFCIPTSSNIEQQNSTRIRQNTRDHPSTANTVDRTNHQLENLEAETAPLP
CB1, sequence (P21554 whole entry): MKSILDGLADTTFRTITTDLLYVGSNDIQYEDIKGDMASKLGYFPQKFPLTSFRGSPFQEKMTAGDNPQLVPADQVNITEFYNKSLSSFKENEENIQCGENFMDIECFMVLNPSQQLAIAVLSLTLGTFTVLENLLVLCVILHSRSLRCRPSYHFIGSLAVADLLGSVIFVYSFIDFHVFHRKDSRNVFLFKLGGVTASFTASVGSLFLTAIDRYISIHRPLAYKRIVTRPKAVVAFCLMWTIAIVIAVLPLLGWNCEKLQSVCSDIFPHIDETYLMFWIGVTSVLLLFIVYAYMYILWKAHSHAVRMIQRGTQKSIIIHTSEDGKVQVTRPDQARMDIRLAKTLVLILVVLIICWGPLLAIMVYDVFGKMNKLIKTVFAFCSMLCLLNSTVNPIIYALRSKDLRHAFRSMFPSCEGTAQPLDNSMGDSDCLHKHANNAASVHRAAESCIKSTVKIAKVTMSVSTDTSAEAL
p38 alpha, sequence (Q16539 whole entry): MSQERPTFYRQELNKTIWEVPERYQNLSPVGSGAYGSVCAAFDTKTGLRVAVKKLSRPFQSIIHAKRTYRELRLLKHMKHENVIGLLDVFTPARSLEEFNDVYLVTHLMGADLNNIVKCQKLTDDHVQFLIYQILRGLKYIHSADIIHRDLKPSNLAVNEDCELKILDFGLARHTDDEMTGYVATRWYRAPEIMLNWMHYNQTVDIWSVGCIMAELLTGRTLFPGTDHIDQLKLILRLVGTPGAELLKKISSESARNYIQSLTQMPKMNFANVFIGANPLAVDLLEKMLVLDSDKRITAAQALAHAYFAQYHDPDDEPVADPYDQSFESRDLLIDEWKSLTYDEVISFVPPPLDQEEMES

SMILES: O=C(O)[C@H]1C2CCC(CC2)[C@@H]1Nc1nc(-c2n[nH]c3ncc(F)cc23)nc(C2CC2)c1F [ZSP1273]
- IC50 [1]: > 10 µM
- inhibition at 10 µM [1, 36]: 42%
- IC50 [2]: > 10 µM
- lung index [3]: significantly decreased
- viral titers in the lung tissues [3]: 0
- EC50 [4]: > 12 µM
- Activity at Maximum Concentration (%) ([4]; 12,000 nM): −2.1%
- animals died (of n = 8) [5]: one
- day on which body weight of surviving mice began to recover [5]: 8 days
- day on which weight of surviving mice increased gradually [5]: 6th
- mice died (of n = 8) [5]: no mice died
- survival rate [5]: 100%
- IC50 [6]: > 10 µM
- inhibition at 10 µM [6, 36]: 2.56%
- EC50 [7]: 0.019 ± 0.01 nM
- IC50 [8]: > 10 µM
- IC50 [9]: > 10 µM
- inhibition at 10 µM [9, 36]: 13.4%
- IC50 [10]: > 10 µM
- IC50 [11]: > 10 µM
- body weight of mice [12]: did not significantly reduce the body weight
- survival rate vs vehicle [12]: could improve the survival rate
- time of death relative to vehicle group [12]: died later than those in the vehicle group
- IC50 [13]: > 10 µM
- EC50 [14]: > 12 µM
- Activity at Maximum Concentration (%) ([14]; 12,000 nM): 6.27%
- EC50 [15]: 0.01 ± 0.0002 nM
- IC50 [16]: > 10 µM
- CC50 [17]: > 10 µM
- IC50 [18]: > 10 µM
- IC50 [19]: > 10 µM
- EC50 [20]: > 12 µM
- Activity at Maximum Concentration (%) ([20]; 12,000 nM): 3.38%
- CC50 [21]: > 10 µM
- EC50 [22]: > 12 µM
- Activity at Maximum Concentration (%) ([22]; 12,000 nM): −12.1%
- Vd ([23]; iv, 3 mg/kg): 0.508 ± 0.241 L/kg
- clearance ([23]; iv, 3 mg/kg): 12.9 ± 2.23 mL/min/kg
- half-life ([23]; iv, 3 mg/kg): 2.11 ± 1.46 h
- AUC(0-t) ([23]; iv, 3 mg/kg): 3950 ± 773 ng·h/mL
- bioavailability ([23]; po, 3 mg/kg): 22.8%
- AUC(0-t) ([23]; po, 3 mg/kg): 899 ± 213 ng·h/mL
- Cmax ([23]; po, 3 mg/kg): 661 ± 304 ng/mL
- AUC(0-t) ([23]; po, 15 mg/kg): 12100 ng·h/mL
- Cmax ([23]; po, 15 mg/kg): 5680 ± 2470 ng/mL
- AUC(0-t) ([23]; po, 75 mg/kg): 77700 ng·h/mL
- Cmax ([23]; po, 75 mg/kg): 17200 ng/mL
- EC50 [24]: > 12 µM
- Activity at Maximum Concentration (%) ([24]; 12,000 nM): 1.43%
- IC50 [25]: > 10 µM
- inhibition at 10 µM [25, 36]: -16.7%
- IC50 [26]: > 10 µM
- inhibition at 10 µM [26, 36]: 7.24%
- EC50 ([27]; read-out: EC50 values range): 0.01 to 0.063 nM
- EC50 ([27]; read-out: average EC50 value range): 0.012 to 0.063 nM
- IC50 [28]: 0.000627 ± 0.000312 µM
- IC50 [29]: > 10 µM
- EC50 [30]: > 12 µM
- Activity at Maximum Concentration (%) ([30]; 12,000 nM): −2.15%
- EC50 [31]: > 10 µM
- IC50 [32]: > 10 µM
- EC50 [33]: > 12 µM
- Activity at Maximum Concentration (%) ([33]; 12,000 nM): −3.45%
- EC50 [34]: > 12 µM
- Activity at Maximum Concentration (%) ([34]; 12,000 nM): −18.96%
- viral load in nasal lavage fluid vs vehicle [35]: decreased significantly
